This note sets out measurements from US8999384B2, “Immediate release compositions of acid labile drugs” (priority 2010, dated 2015).

This data set is described as follows: Acid neutralizing capacity of buffers: buffer added to basal SGF and titrated with excess 0.1N HCl for 1 hour. It is filed as physicochemical. Conditions: for initial rise in pH: at the buffer quantity required to neutralize the SGF (quantity stated per buffer); for pH upon addition of excess acid for a period of 1 h: at the buffer quantity required to neutralize the SGF, 0.1N HCl at 0.5 ml/minute; for quantity of buffer required to neutralize the basal SGF: basal SGF: 9.6 ml of 0.1N HCl + 210 ml of water. The method, then:
A number of buffers, both soluble and insoluble, were tested for their acid neutralizing capacity. Based on their acid neutralizing capacity, buffers, both individual and combination, were evaluated for their behavior at the excess secretion of acid. The technique involved consists of adding an excess dose of the buffer to a sample of artificial gastric juice. […] The model was simulated in vitro and the buffer was added to the basal SGF medium containing 9.6 ml of 0.1N HCl+210 ml of water and titrated with excess acid (0.1N HCl) at the rate of 0.5 ml/minute for a period of 1 hour (total volume=250 ml). The buffer(s) which maintained a pH above 6.0 at the excess secretion of acid was selected.

As to `[Mg+2].[O-2]` [Heavy Magnesium oxide], the “initial rise in pH” value was 7, the “pH upon addition of excess acid for a period of 1 h” value was determined as 7 and the “quantity of buffer required to neutralize the basal SGF” value was “About 80 mg”.

For the compound `NC(CO)(CO)CO` [Tromethamine], the “initial rise in pH” value came to 8, the “pH upon addition of excess acid for a period of 1 h” value was 8 and the “quantity of buffer required to neutralize the basal SGF” value is given as “About 1000 mg”.
